From patent US20060094031A1, “Alpha-L-arabinofuranosidase histochemical reporter gene assay” (Stowers Institute for Medical Research, priority 2004, published 2006)
Entries after “also recorded” stand apart in the source; their conditions may differ.

Assays:
[1] = tested on: β-galactosidase (lacZ) expressed in NIH 3T3 cells; conditions: for color of cells expressing lacZ after staining with the substrate: histochemical staining
Experimental: (§1) FIG. 1 depicts a schematic of the CMV abfA expression vector. […] NIH 3T3 cells were transfected with CMV-abfA and 30 hours later were fixed with 2% formaldehyde, 0.2% glutaraldehyde for 5 minutes and then processed for histochemical detection of abfA expression using a standard protocol for lacZ detection (5), but substituting Z-ara (0.02%) for X-gal. The synthesis for Z-ara is described in Example 3. Just like X-gal, Z-ara is a colorless water-soluable chromogen that forms an insoluable blue precipitate upon hydrolysis. […] Alternative β-galactosidase substrates to X-gal, 6-chloro-3-indolyl-β-D-galactopyranaside (“Red-gal,” Research Organics, Cleveland, Ohio, USA) and 5-bromo-6-chloro-3-indolyl-β-D-galactopyranoside (“Magenta-gal,” BioSynth AG, Switzerland), allow LacZ^+ cells to appear red instead of blue and thus easily distinguishable from Z-ara positive cells.
(§2) To determine whether α-L-arabinofuranosidase and β-galactosidase could be detected both in the same cell, NHI 3T3 cells were co-transfected with CMV-abfA and with proBGN (7), a plasmid encoding the lacZ gene tagged with a nuclear localization signal. […] One day after transfection cells were fixed followed by in situ visualization of β-galactosidase and α-L-arabinofuranosidase activities by incubation with 0.02% Magenta-gal and 0.02% Z-ara, respectively. Imaging was with a Leica DMR microscope mounted with an Optronics Magnafire digital camera.

[2] = target: T1, α-L-arabinofuranosidase (S. lividans abfA gene) expressed in NIH 3T3 cells (Streptomyces lividans, UniProt P53627); test: histochemical (in situ) detection of abfA expression in transfected mammalian cells with chromogenic substrate; format: cell-based; conditions: for color of cells expressing abfA after staining with the substrate: NIH 3T3 cells transfected with CMV-abfA, fixed 30 hours later, substrate 0.02% in lacZ detection protocol
T1 construct: expressed in transfected cells; host or cells: NIH 3T3 cells transfected with CMV-abfA (pcDNA3 backbone)
T1 sequence (P53627 1-662): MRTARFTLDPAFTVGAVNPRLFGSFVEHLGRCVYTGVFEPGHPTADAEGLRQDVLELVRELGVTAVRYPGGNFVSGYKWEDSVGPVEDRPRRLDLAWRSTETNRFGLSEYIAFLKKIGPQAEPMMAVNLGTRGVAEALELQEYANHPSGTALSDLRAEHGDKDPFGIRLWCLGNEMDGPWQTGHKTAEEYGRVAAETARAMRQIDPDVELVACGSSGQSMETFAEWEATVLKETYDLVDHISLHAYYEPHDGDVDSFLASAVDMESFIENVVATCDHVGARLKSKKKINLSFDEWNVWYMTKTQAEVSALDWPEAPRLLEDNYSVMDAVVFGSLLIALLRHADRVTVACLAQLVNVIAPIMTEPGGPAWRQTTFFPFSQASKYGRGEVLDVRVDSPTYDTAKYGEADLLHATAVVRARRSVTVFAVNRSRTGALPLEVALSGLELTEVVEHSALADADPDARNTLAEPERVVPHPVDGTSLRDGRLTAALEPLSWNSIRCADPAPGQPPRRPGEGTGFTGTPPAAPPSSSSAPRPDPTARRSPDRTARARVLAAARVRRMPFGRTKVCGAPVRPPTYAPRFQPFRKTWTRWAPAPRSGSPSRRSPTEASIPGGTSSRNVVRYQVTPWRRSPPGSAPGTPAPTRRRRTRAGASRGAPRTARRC
Experimental: as §1
One feature of the Z-ara substrate is that the 5-bromo-3-indoloxyl-derived final product has birefringent properties.
as §2

[3] = solubility of the chromogen in water; format: physicochemical; conditions: unhydrolysed chromogen; forms insoluable blue precipitate upon hydrolysis

Row | Compound | color of cells expressing lacZ after staining with the substrate [1] | staining from lacZ expression in co-transfected cells (dual detection) ([1]; NIH 3T3 co-transfected with CMV-abfA and proBGN (nuclear-localizing β-galactosidase), one day after transfection, 0.02% substrate, FIGS. 2(C), 2(D)) | color of cells expressing abfA after staining with the substrate [2] | solubility in water [3] | subcellular location of staining in abfA-expressing cells ([2]; NIH 3T3, CMV-abfA, FIG. 2(A)) | appearance of stained AbfA+ cells under polarized light ([2]; NIH 3T3, CMV-abfA, polarized light, FIG. 2(B)) | staining from abfA expression in co-transfected cells (dual detection) ([2]; NIH 3T3 co-transfected with CMV-abfA and proBGN, one day after transfection, 0.02% substrate, FIGS. 2(C), 2(D))
1 | 5-bromo-6-chloro-3-indolyl-β-D-galactopyranoside [Magenta-gal] | red | red nucleus | – | – | – | – | –
2 | OC[C@H]1O[C@@H](Oc2c[nH]c3cc(Cl)ccc23)[C@H](O)[C@@H](O)[C@H]1O [Red-gal, 6-chloro-3-indolyl-β-D-galactopyranaside] | red | – | – | – | – | – | –
3 | OC[C@H]1O[C@@H](Oc2c[nH]c3ccc(Br)c(Cl)c23)[C@H](O)[C@@H](O)[C@H]1O [X-gal, 5-bromo-4-chloro-3-indolyl-β-D-galactosidase] | – | – | no color change; also recorded: no blue staining | water-soluable | – | – | –
4 | OC[C@H]1O[C@@H](Oc2c[nH]c3ccc(Br)cc23)C(O)C1O (stereo partly drawn) [Z-ara, 5-bromo-3-indolyl-α-arabinofuranoside] | remain colorless | – | dark blue | water-soluable | predominantly cytoplasmic | distinct yellow birefringence | blue cytoplasm
